Laboratory results: patent US20250215030A1, “STAT MODULATORS AND USES THEREOF” (Recludix Pharma, Inc., priority 2022, published 2025)
pIC50: −log10 of the molar value.

Key:
[1] = biological target: T1, Recombinant STAT6 protein (STAT6(W123-T658)) (Homo sapiens, UniProt P42226); assay: STAT6 Fluorescence Polarization (FP) Assay; format: binding; conditions: STAT6(W123-T658) 250 nM, probe 5-FAM-ApYKPFQDLI-NH2 2 nM, 45-minute incubation
T1 construct: STAT6(W123-T658)
T1 sequence (P42226 123-658): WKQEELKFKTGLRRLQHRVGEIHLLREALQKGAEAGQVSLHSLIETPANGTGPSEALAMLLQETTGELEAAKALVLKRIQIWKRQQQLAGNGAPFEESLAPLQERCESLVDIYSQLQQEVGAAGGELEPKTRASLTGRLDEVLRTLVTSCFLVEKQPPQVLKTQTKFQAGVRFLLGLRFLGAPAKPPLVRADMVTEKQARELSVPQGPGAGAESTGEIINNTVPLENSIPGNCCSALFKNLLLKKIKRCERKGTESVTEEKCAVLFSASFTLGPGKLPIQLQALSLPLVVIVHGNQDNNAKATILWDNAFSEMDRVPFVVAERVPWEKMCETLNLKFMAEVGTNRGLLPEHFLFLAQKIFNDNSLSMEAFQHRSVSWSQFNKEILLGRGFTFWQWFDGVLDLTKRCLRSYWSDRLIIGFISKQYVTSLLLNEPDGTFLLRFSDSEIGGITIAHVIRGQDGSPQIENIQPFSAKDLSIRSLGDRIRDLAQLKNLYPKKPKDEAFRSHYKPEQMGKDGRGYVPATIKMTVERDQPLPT
Outline: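 STAT6 (W123-T658) at 250 nM mixed with 2 nM 5-FAM-ApYKPFQDLI-NH2 probe in HEPES pH 7.4 buffer with DTT and Tween 20, 1% DMSO final. Polarization read after 45 min at room temperature; IC50 by nonlinear regression of mP versus log concentration, reported in bins A–D.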

[2] = biological target: T2, Recombinant STAT3 protein (STAT3(G127-I722)) (Homo sapiens, UniProt P40763); assay: STAT3 Fluorescence Polarization (FP) Assay; format: binding; conditions: STAT3(G127-I722) 25 nM, probe 5-FAM-GpYLPQTV-NH2 2 nM, 45-minute incubation
T2 construct: STAT3(G127-I722)
T2 sequence (P40763 127-722, species assumed): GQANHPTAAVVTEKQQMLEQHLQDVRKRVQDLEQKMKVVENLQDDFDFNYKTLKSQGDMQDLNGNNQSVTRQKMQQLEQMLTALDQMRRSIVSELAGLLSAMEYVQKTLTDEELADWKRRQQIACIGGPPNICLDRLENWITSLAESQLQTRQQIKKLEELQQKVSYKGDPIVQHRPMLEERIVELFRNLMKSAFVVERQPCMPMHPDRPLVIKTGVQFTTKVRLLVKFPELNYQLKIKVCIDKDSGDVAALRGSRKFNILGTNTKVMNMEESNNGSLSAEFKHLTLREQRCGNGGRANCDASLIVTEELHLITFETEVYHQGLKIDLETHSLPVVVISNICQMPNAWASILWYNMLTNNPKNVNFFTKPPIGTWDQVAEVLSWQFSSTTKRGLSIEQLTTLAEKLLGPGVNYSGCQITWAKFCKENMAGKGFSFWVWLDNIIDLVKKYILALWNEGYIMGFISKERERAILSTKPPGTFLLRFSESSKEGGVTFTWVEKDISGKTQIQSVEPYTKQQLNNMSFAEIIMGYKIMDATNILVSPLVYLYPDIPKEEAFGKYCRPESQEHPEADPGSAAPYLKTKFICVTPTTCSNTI
Outline: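 STAT3(G127-I722) at 25 nM and 5-FAM-GpYLPQTV-NH2 probe at 2 nM in HEPES pH 7.4 buffer with NaCl, EDTA, Tween 20, DTT; 1% DMSO. FP read after 45 min at room temperature; IC50 by nonlinear regression of mP vs log concentration, binned A ≤100 nM to D >10 μM.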

pIC50 [1] | pIC50 [2] | Structure (SMILES)
4.52 to 5.52 | 6.00 to 7.00 | CC(=O)N1CC[C@@H]2[C@H]1CN2C(=O)[C@@H]1CC[C@@H]2C[C@H]3C[C@H]3C[C@H](NC(=O)c3cc4cc(C(F)P(=O)(O)O)ccc4s3)C(=O)N21 (stereo partly drawn) [Example 290, ((2-(((3S,6S,7aS,8aR,9aR)-3-((1R,5R)-2-acetyl-2,6-diazabicyclo[3.2.0]heptane-6-carbonyl)-5-oxodecahydro-1H-cyclopropa[d]pyrrolo[1,2-a]azocin-6-yl)carbamoyl)benzo[b]thiophen-5-yl)fluoromethyl)phosphonic acid]
5.52 to 6.52 | > 7.00 | O=C(N[C@H]1C[C@H]2C[C@H]2C[C@H]2CC[C@@H](C(=O)N3CC(c4cnccc4O)C3)N2C1=O)c1cc2cc(C(F)P(=O)(O)O)ccc2s1 (stereo partly drawn) [Example 293, (fluoro(2-(((3S,6S,7aR,8aS,9aR)-3-(3-(4-hydroxypyridin-3-yl)azetidine-1-carbonyl)-5-oxodecahydro-1H-cyclopropa[d]pyrrolo[1,2-a]azocin-6-yl)carbamoyl)benzo[b]thiophen-5-yl)methyl)phosphonic acid]
4.52 to 5.52 | > 7.00 | O=C(N[C@H]1C[C@H]2C[C@H]2C[C@H]2CC[C@@H](C(=O)N3CC(c4cnccc4O)C3)N2C1=O)c1cc2cc(CP(=O)(O)O)ccc2s1 [Example 294, ((2-(((3S,6S,7aR,8aS,9aR)-3-(3-(4-hydroxypyridin-3-yl)azetidine-1-carbonyl)-5-oxodecahydro-1H-cyclopropa[d]pyrrolo[1,2-a]azocin-6-yl)carbamoyl)benzo[b]thiophen-5-yl)methyl)phosphonic acid]
5.52 to 6.52 | > 7.00 | O=C(N[C@H]1C[C@@H]2C[C@@H]2C[C@H]2CC[C@@H](C(=O)N3C[C@H]4[C@@H]3CCN4c3cccnc3)N2C1=O)c1cc2cc(C(F)P(=O)(O)O)ccc2s1 (stereo partly drawn) [Example 295, (fluoro(2-(((3S,6S,7aS,8aR,9aR)-5-oxo-3-((1S,5S)-2-(pyridin-3-yl)-2,6-diazabicyclo[3.2.0]heptane-6-carbonyl)decahydro-1H-cyclopropa[d]pyrrolo[1,2-a]azocin-6-yl)carbamoyl)benzo[b]thiophen-5-yl)methyl)phosphonic acid]
5.52 to 6.52 | > 7.00 | O=C(N[C@H]1C[C@@H]2C[C@@H]2C[C@H]2CC[C@@H](C(=O)N3C[C@@H]4[C@H]3CCN4c3cccnc3)N2C1=O)c1cc2cc(C(F)P(=O)(O)O)ccc2s1 (stereo partly drawn) [Example 296, (fluoro(2-(((3S,6S,7aS,8aR,9aR)-5-oxo-3-((1R,5R)-2-(pyridin-3-yl)-2,6-diazabicyclo[3.2.0]heptane-6-carbonyl)decahydro-1H-cyclopropa[d]pyrrolo[1,2-a]azocin-6-yl)carbamoyl)benzo[b]thiophen-5-yl)methyl)phosphonic acid]
5.52 to 6.52 | > 7.00 | O=C(N[C@H]1C[C@@H]2C[C@@H]2C[C@H]2CC[C@@H](C(=O)N3CC(c4ccon4)C3)N2C1=O)c1cc2cc(C(F)(F)P(=O)(O)O)ccc2s1 [Example 299, (difluoro(2-(((3S,6S,7aS,8aR,9aR)-3-(3-(isoxazol-3-yl)azetidine-1-carbonyl)-5-oxodecahydro-1H-cyclopropa[d]pyrrolo[1,2-a]azocin-6-yl)carbamoyl)benzo[b]thiophen-5-yl)methyl)phosphonic acid]
5.52 to 6.52 | > 7.00 | O=C(N[C@H]1C[C@@H]2C[C@@H]2C[C@H]2CC[C@@H](C(=O)N3CC(c4ncco4)C3)N2C1=O)c1cc2cc(C(F)(F)P(=O)(O)O)ccc2s1 [Example 300, (difluoro(2-(((3S,6S,7aS,8aR,9aR)-3-(3-(oxazol-2-yl)azetidine-1-carbonyl)-5-oxodecahydro-1H-cyclopropa[d]pyrrolo[1,2-a]azocin-6-yl)carbamoyl)benzo[b]thiophen-5-yl)methyl)phosphonic acid]
4.52 to 5.52 | 6.00 to 7.00 | O=C(N[C@H]1C[C@@H]2C[C@@H]2C[C@H]2CC[C@@H](C(=O)N3CC(N4CCS(=O)(=O)CC4)C3)N2C1=O)c1cc2cc(C(F)P(=O)(O)O)ccc2s1 (stereo partly drawn) [Example 301, ((2-(((3S,6S,7aS,8aR,9aR)-3-(3-(1,1-dioxidothiomorpholino)azetidine-1-carbonyl)-5-oxodecahydro-1H-cyclopropa[d]pyrrolo[1,2-a]azocin-6-yl)carbamoyl)benzo[b]thiophen-5-yl)fluoromethyl)phosphonic acid]
4.52 to 5.52 | 6.00 to 7.00 | O=C(N[C@H]1C[C@H]2C[C@H]2C[C@H]2CC[C@@H](C(=O)N3CC(N4CCS(=O)(=O)CC4)C3)N2C1=O)c1cc2cc(C(F)P(=O)(O)O)ccc2s1 (stereo partly shown) [Example 302]
5.52 to 6.52 | > 7.00 | O=C(N[C@H]1C[C@@H]2C[C@@H]2C[C@H]2CC[C@@H](C(=O)N3CC(c4cnccc4F)C3)N2C1=O)c1cc2cc(C(F)(F)P(=O)(O)O)ccc2s1 [Example 303, (difluoro(2-(((3S,6S,7aS,8aR,9aR)-3-(3-(4-fluoropyridin-3-yl)azetidine-1-carbonyl)-5-oxodecahydro-1H-cyclopropa[d]pyrrolo[1,2-a]azocin-6-yl)carbamoyl)benzo[b]thiophen-5-yl)methyl)phosphonic acid]
4.52 to 5.52 | > 7.00 | Cn1cnnc1C1CN(C(=O)[C@@H]2CC[C@@H]3C[C@H]4C[C@H]4C[C@H](NC(=O)c4cc5cc(C(F)P(=O)(O)O)ccc5s4)C(=O)N32)C1 (stereo partly drawn) [Example 304, (fluoro(2-(((3S,6S,7aS,8aR,9aR)-3-(3-(4-methyl-4H-1,2,4-triazol-3-yl)azetidine-1-carbonyl)-5-oxodecahydro-1H-cyclopropa[d]pyrrolo[1,2-a]azocin-6-yl)carbamoyl)benzo[b]thiophen-5-yl)methyl)phosphonic acid]
4.52 to 5.52 | 6.00 to 7.00 | O=C(N[C@H]1C[C@@H]2C[C@@H]2C[C@H]2CC[C@@H](C(=O)N3CC(c4ncccn4)C3)N2C1=O)c1cc2cc(C(F)P(=O)(O)O)ccc2s1 (stereo partly drawn) [Example 305, (fluoro(2-(((3S,6S,7aS,8aR,9aR)-5-oxo-3-(3-(pyrimidin-2-yl)azetidine-1-carbonyl)decahydro-1H-cyclopropa[d]pyrrolo[1,2-a]azocin-6-yl)carbamoyl)benzo[b]thiophen-5-yl)methyl)phosphonic acid]
4.52 to 5.52 | > 7.00 | O=C(N[C@H]1C[C@@H]2C[C@@H]2C[C@H]2CC[C@@H](C(=O)N3CC(c4ccon4)C3)N2C1=O)c1cc2cc(C(F)P(=O)(O)O)ccc2s1 (stereo partly drawn) [Example 312, (fluoro(2-(((3S,6S,7aS,8aR,9aR)-3-(3-(isoxazol-3-yl)azetidine-1-carbonyl)-5-oxodecahydro-1H-cyclopropa[d]pyrrolo[1,2-a]azocin-6-yl)carbamoyl)benzo[b]thiophen-5-yl)methyl)phosphonic acid]
5.52 to 6.52 | > 7.00 | O=C(N[C@H]1C[C@H]2C[C@H]2C[C@H]2CC[C@@H](C(=O)N3CC[C@H](c4cnccc4F)C3)N2C1=O)c1cc2cc(C(F)P(=O)(O)O)ccc2s1 (stereo partly drawn) [Example 313, (fluoro(2-(((3S,6S,7aR,8aS,9aR)-3-((R)-3-(4-fluoropyridin-3-yl)pyrrolidine-1-carbonyl)-5-oxodecahydro-1H-cyclopropa[d]pyrrolo[1,2-a]azocin-6-yl)carbamoyl)benzo[b]thiophen-5-yl)methyl)phosphonic acid]
4.52 to 5.52 | > 7.00 | O=C(N[C@H]1C[C@H]2C[C@H]2C[C@H]2CC[C@@H](C(=O)N3CC(c4ncccn4)C3)N2C1=O)c1cc2cc(C(F)P(=O)(O)O)ccc2s1 (stereo partly drawn) [Example 317, (fluoro(2-(((3S,6S,7aR,8aS,9aR)-5-oxo-3-(3-(pyrimidin-2-yl)azetidine-1-carbonyl)decahydro-1H-cyclopropa[d]pyrrolo[1,2-a]azocin-6-yl)carbamoyl)benzo[b]thiophen-5-yl)methyl)phosphonic acid]
4.52 to 5.52 | > 7.00 | COc1ccncc1C1CN(C(=O)[C@@H]2CC[C@@H]3C[C@@H]4C[C@@H]4C[C@H](NC(=O)c4cc5cc(C(F)P(=O)(O)O)ccc5s4)C(=O)N32)C1 (stereo partly drawn) [Example 318, (fluoro(2-(((3S,6S,7aR,8aS,9aR)-3-(3-(4-methoxypyridin-3-yl)azetidine-1-carbonyl)-5-oxodecahydro-1H-cyclopropa[d]pyrrolo[1,2-a]azocin-6-yl)carbamoyl)benzo[b]thiophen-5-yl)methyl)phosphonic acid]
4.52 to 5.52 | > 7.00 | Cc1ccncc1C1CN(C(=O)[C@@H]2CC[C@@H]3C[C@@H]4C[C@@H]4C[C@H](NC(=O)c4cc5cc(C(F)P(=O)(O)O)ccc5s4)C(=O)N32)C1 (stereo partly drawn) [Example 320, (fluoro(2-(((3S,6S,7aR,8aS,9aR)-3-(3-(4-methylpyridin-3-yl)azetidine-1-carbonyl)-5-oxodecahydro-1H-cyclopropa[d]pyrrolo[1,2-a]azocin-6-yl)carbamoyl)benzo[b]thiophen-5-yl)methyl)phosphonic acid]
